The SangsterLogP compilation

Conditions: pH 5.0

In order of falling logD:
1. CCN1C(=O)/C(=C2\SC(=S)N(Cc3ccc(OC)cc3)C2=O)c2cc(Br)ccc21  6.96
2. CCOC(=O)C1=C(C)OC(N)=C(C#N)[C@H]1c1cccc(I)c1  4.48
3. O=C(NCc1ccccc1)/C(=C/c1ccc(Cl)cc1)NC(=O)c1ccccc1  4.41
4. Cc1cc(C(=O)CN2C(=O)[C@@H]3CC=CC[C@H]3C2=O)c(C)n1Cc1ccc2c(c1)OCO2  4.38
5. CCCCN1C(=O)c2ccc(C(=O)OCC(=O)N[C@H](C)C(C)C)cc2C1=O  3.62
6. C[C@@H](NC(=O)C1CCN(C(=O)c2ccc(F)cc2)CC1)c1ccccc1  3.48
7. COC(=O)c1ccc(N(C(=O)C(F)(F)F)[C@@H]2C=CS(=O)(=O)C2)cc1  2.05

Same assay, conditions: pH 6.0

CC1=C(C(=O)N2CCCCC2)C(c2cccs2)C2=C(O)CCCC2=N1 (centres undefined) showed a logD of 3.37.

Same assay, conditions: pH 6.5

In order of rising logD:
1. CC(C)(C)C1(C)O[C@H](C(N)=O)[C@H](C(N)=O)O1 (some centres undefined)  1.6
2. CCn1c(NC[C@@H](O)c2ccccc2)nc2c1c(=O)n(C)c(=O)n2C  3.24
3. NC(=O)C(C(=O)/C=C/c1ccc(Cl)cc1)=C1SCS1  3.64
4. O=C(CN1N=N[C@@H]2C(=O)N(c3ccc(Cl)cc3Cl)C(=O)[C@@H]21)Nc1ccccc1  4.3
5. CCOC(=O)c1[nH]c(C)c(C(=O)OCC(=O)N2CCc3ccccc32)c1C  4.47
6. C=CCOc1cccc([C@@H]2c3c(oc4ccccc4c3=O)C(=O)N2c2nnc(C)s2)c1  4.52
7. Cc1cccc(NC(=O)C[C@@H]2S/C(=N\c3c(C)cccc3C)N(C)C2=O)c1  4.75
8. C[C@@H](CCc1ccccc1)NC(=O)C(=O)NC[C@@H]1COc2ccccc2O1  4.8
9. N#CC1(C#N)[C@H](c2ccc(Br)s2)[C@@H](C(=O)c2ccccc2)N2c3ccccc3C=C[C@@H]21  5.05
10. O=C(c1ccc(Cl)cc1)N(Cc1ccc(Cl)c(Cl)c1)N1C(=O)[C@@H]2CCCC[C@H]2C1=O  5.51
11. Cc1ccc(N2CC(=O)N(/N=C/c3cn(-c4ccccc4)nc3-c3ccc(Cl)cc3)CC2=O)cc1  6.14

Same assay, conditions: pH 7.0

With Cc1ccc(N[C@H]2O[C@@H](CO)[C@H](O)[C@@H](O)[C@H]2O)cc1Br the logD was 2.28.

Same assay, conditions: pH 7.3

In order of falling logD:
1. CCOC(=O)C1=C(N)n2c(s/c(=C\c3ccc(C(=O)OC)cc3)c2=O)=C(C(=O)OC)C1c1ccc(C(=O)OC)cc1 (centres undefined)  6.95
2. CC1(C)[C@@]2(C)CC[C@]1(C(=O)Nc1ccccc1C(F)(F)F)c1nc3ccccc3nc12  6.01
3. O=C1C(=O)N(OCc2ccc(Br)cc2)[C@H]2CCCC[C@@H]2N1OCc1ccc(Br)cc1  5.49
4. CC1=NC2=C(C(=O)CCC2)[C@H](c2ccc(Cl)cc2)C1C(=O)OCCc1ccccc1 (some centres undefined)  5.48
5. CCCn1c2ccccc2c2nnc(SCC(=O)N[C@H](C)c3ccccc3)nc21  4.36
6. COc1cccc([C@@H]2C3=C(CCCC3=O)N=C(C)C2C(=O)OC[C@@H]2CCCO2)c1 (some centres undefined)  3.62
7. CCOP(=O)(Cc1ccc(CP(=O)(OCC)OCC)o1)OCC  3.25

Same assay, conditions: pH 8.0

CC(=O)N(c1ccccc1)c1nc(/C=C/C(=O)Nc2ccc3c(c2)OCO3)cs1 gave a logD of 4.37.

Same assay, conditions: pH 9.0

For CC(=O)Nc1ccc([C@@H]2C(C#N)=C(N)Oc3[nH]nc(-c4cc(C)sc4C)c32)cc1, the logD was 4.26.

Same assay, conditions: pH 10.0

In order of rising logD:
1. CC(=O)/N=c1/sc2nc3ccccc3nc2n1N(C(C)=O)C(C)=O  1.1
2. CCO/C(O)=C/c1nc2nonc2nc1O  1.61
3. O=[N+]([O-])c1ccccc1/C=N/c1ccc(/N=C/c2ccccc2[N+](=O)[O-])cc1  2.95
4. N#CC1=C(N)OC2=C(C(=O)C[C@H](c3ccccc3)C2)[C@H]1c1ccccc1F  3.07
5. O=C1[C@@H]2C3c4ccccc4C(c4ccccc43)[C@@H]2C(=O)N1c1nccs1  3.83
6. Cc1nn(C)cc1-c1cc(C(F)(F)F)n2nc(C(=O)N3C[C@@H](C)O[C@@H](C)C3)cc2n1  4.11
7. COc1cc([C@@H]2Nc3cc(C)c(C)cc3NC3=C2C(=O)CC(C)(C)C3)cc(OC)c1OC(C)=O  4.21
8. CC[C@@H]1CCCCN1C(=O)[C@H]1CC(c2cc(Cl)c(OC)cc2OC)=NO1  4.55
9. CCOC(=O)C1=NN[C@@]2(c3cccc([N+](=O)[O-])c3)C(=O)N(c3cccc(C(F)(F)F)c3)C(=O)[C@H]12  4.73
10. CC(C)OC(=O)C1=C(CSc2nc3c(cc2C#N)CCCCC3)OC(N)=C(C#N)[C@@H]1c1ccncc1  5.43

Same assay, conditions: pH 10.5

In order of rising logD:
1. N#CC1=C(N)Oc2c(c(=O)oc3ccccc23)[C@H]1c1cccs1  2.34
2. CCOC(=O)C1CCN(C(=O)c2ccc(Cl)c(/N=C3/N[C@@H]4CS(=O)(=O)C[C@@H]4S3)c2)CC1  2.96
3. CCN(C(=O)[C@@H](C)OC(=O)c1cc(OC)c(OC)c(OC)c1)c1ccccc1  3.4
4. O=[N+]([O-])c1ccc(-c2nc3nc4ccccc4nc3n2C[C@@H]2CCCO2)cc1  3.75
5. Cc1cccc(-n2c(S[C@@H](C)C(N)=O)nnc2-c2cccc(S(=O)(=O)N(C)C)c2)c1  3.81
6. COc1cccc(C2=NN=C3OC(N)=C(C#N)[C@H](c4cc(OC)c(OC)cc4Br)[C@@H]32)c1  4.52
7. CN(C)/C=C/C(=O)c1ccc(C#Cc2ccccc2)cc1  4.69
8. CCOC(=O)C1=C(C)N=c2s/c(=C\c3ccc(OC(C)=O)cc3)c(=O)n2C1c1cccs1 (centres undefined)  4.77
9. CC1(C)CC(=O)C2=C(C1)OC(N)=C(C#N)[C@H]2c1c2ccccc2cc2ccccc12  4.99
10. COC(=O)c1c(C)sc2c1OC(N)=C(C#N)[C@@H]2c1cc(Br)cs1  5.06
